In the supplement of paper PMC10307832:

Assays:
Assay in all cases: relative viability (nuclei count vs DMSO), 5 days (fraction); higher = more cells survive
[1] = compound: CC1=CC(=CC=C1)NC2=NC(=CS2)C3=CC=NC=C3 + CC(=O)c1c(C)c2cnc(Nc3ccc(N4CCNCC4)cn3)nc2n(C2CCCC2)c1=O [Palbociclib] (partner 0.5 µM)
Procedure, shortened: (§1)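 Lung cancer cell lines were pin-tool dosed in 1536-well plates on the day after seeding, with either a lone drug or a fixed anchor-drug dose plus five library-drug doses (not always all listed) in √10 steps. Nuclei were counted on 4× images after 5 days. Relative viability is the ratio of treated-well to vehicle-well nuclei counts, with each value a median of duplicate plates.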

[2] = compound: CC1=CC(=CC=C1)NC2=NC(=CS2)C3=CC=NC=C3 + Nc1nc2[nH]cc(CCc3ccc(C(=O)N[C@@H](CCC(=O)O)C(=O)O)cc3)c2c(=O)[nH]1 [Pemetrexed] (partner 0.2 µM)
Procedure, shortened: as §1

Masitinib + Alpelisib = compound: Cc1ccc(NC(=O)c2ccc(CN3CCN(C)CC3)cc2)cc1Nc1nc(-c2cccnc2)cs1 [Masitinib] + Cc1nc(NC(=O)N2CCC[C@H]2C(N)=O)sc1-c1ccnc(C(C)(C)C(F)(F)F)c1 [Alpelisib] (partner 2 µM)
Procedure, shortened: as §1

Masitinib + Decitabine = compound: Cc1ccc(NC(=O)c2ccc(CN3CCN(C)CC3)cc2)cc1Nc1nc(-c2cccnc2)cs1 [Masitinib] + Nc1ncn([C@H]2C[C@H](O)[C@@H](CO)O2)c(=O)n1 [Decitabine] (partner 2 µM)
Procedure, shortened: as §1

| Cell Line | relative viability ([1]; first compound 0.08 µM) | relative viability ([1]; first compound 0.253 µM) | relative viability ([1]; first compound 0.8 µM) | relative viability ([1]; first compound 2.53 µM) | relative viability ([1]; first compound 8 µM) | relative viability ([2]; first compound 0.08 µM) | relative viability ([2]; first compound 0.253 µM) | relative viability ([2]; first compound 0.8 µM) | relative viability ([2]; first compound 2.53 µM) | relative viability ([2]; first compound 8 µM) | relative viability (Masitinib + Alpelisib; first compound 0.01 µM) | relative viability (Masitinib + Alpelisib; first compound 0.03162 µM) | relative viability (Masitinib + Alpelisib; first compound 0.1 µM) | relative viability (Masitinib + Alpelisib; first compound 0.3162 µM) | relative viability (Masitinib + Alpelisib; first compound 1 µM) | relative viability (Masitinib + Decitabine; first compound 0.01 µM) | relative viability (Masitinib + Decitabine; first compound 0.03162 µM) | relative viability (Masitinib + Decitabine; first compound 0.1 µM) | relative viability (Masitinib + Decitabine; first compound 0.3162 µM) | relative viability (Masitinib + Decitabine; first compound 1 µM) |
| --- | --- | --- | --- | --- | --- | --- | --- | --- | --- | --- | --- | --- | --- | --- | --- | --- | --- | --- | --- | --- |
| LC-2-ad | 0.469 | 0.532 | 0.466 | 0.542 | 0.436 | 0.269 | 0.281 | 0.308 | 0.258 | 0.276 | 0.866 | 0.822 | 0.843 | 0.815 | 0.844 | 0.837 | 0.795 | 0.85 | 0.795 | 0.894 |
| NCI-H1975 | 0.497 | 0.416 | 0.51 | 0.374 | 0.241 | 0.277 | 0.25 | 0.257 | 0.24 | 0.239 | 0.62 | 0.622 | 0.684 | 0.602 | 0.604 | 0.324 | 0.417 | 0.381 | 0.293 | 0.34 |
| NCI-H1944 | 0.288 | 0.307 | 0.298 | 0.299 | 0.292 | 0.543 | 0.6 | 0.636 | 0.654 | 0.476 |  | 0.78 | 0.925 | 0.699 | 0.84 |  | 0.398 |  | 0.423 | 0.384 |
| NCI-H2085 | 0.464 | 0.463 | 0.475 | 0.47 | 0.349 | 0.774 | 0.943 | 0.84 | 0.806 | 0.711 | 0.838 | 1 | 1.09 | 0.935 | 0.985 | 0.55 | 0.522 | 0.511 | 0.536 | 0.509 |
| COR-L 105 | 0.353 | 0.45 | 0.391 | 0.421 | 0.33 | 1.01 | 0.903 | 0.898 | 1.02 | 0.797 | 1 | 1.02 | 1.05 | 0.879 | 1.15 | 0.617 | 0.658 | 0.619 | 0.61 | 0.639 |
| SK-LU-1 | 0.405 | 0.404 | 0.293 | 0.479 | 0.37 | 0.906 | 1.03 | 0.691 | 0.997 | 0.937 | 1.12 | 1.14 | 0.984 | 1.31 | 1.03 | 0.569 | 0.526 | 0.725 | 0.594 | 0.646 |
| PC-3 [JPC-3] | 0.542 |  | 0.503 | 0.477 | 0.481 | 0.909 |  | 1.15 | 0.961 | 1.05 | 1.01 | 1.03 | 0.978 | 1.03 | 1.01 | 0.828 | 0.771 | 0.824 | 0.819 | 0.785 |
| NCI-H661 | 0.433 | 0.395 | 0.391 | 0.386 | 0.351 | 0.876 | 0.959 | 0.889 | 0.907 | 0.871 | 0.748 | 0.577 | 0.623 | 0.384 | 0.47 | 0.502 | 0.552 | 0.515 | 0.535 | 0.545 |
| NCI-H2087 | 0.186 | 0.245 | 0.227 | 0.238 | 0.221 | 0.637 | 0.623 | 0.591 | 0.63 | 0.711 | 1.07 | 1.05 | 1.19 | 1.15 | 1.08 | 0.25 | 0.247 | 0.32 | 0.223 | 0.254 |
| NCI-H1755 | 0.432 | 0.429 | 0.412 | 0.442 | 0.393 | 0.35 | 0.445 | 0.393 | 0.401 | 0.397 |  | 0.847 | 1.01 | 0.972 | 0.833 | 0.612 | 0.711 | 0.733 | 0.709 | 0.647 |
| EMC-BAC-2 | 0.495 | 0.496 | 0.526 | 0.504 | 0.454 | 0.393 | 0.402 | 0.413 | 0.432 | 0.393 | 0.701 | 0.714 | 0.841 | 0.767 | 0.783 | 0.771 |  | 0.918 | 1.02 | 0.957 |
| NCI-H2009 | 0.251 | 0.309 | 0.28 | 0.279 | 0.23 | 0.938 | 1.05 | 1 | 1 | 0.914 | 1.15 | 1.12 | 1.24 | 1.16 | 1.18 | 0.368 | 0.332 | 0.409 | 0.406 | 0.371 |
| NCI-H650 | 0.256 | 0.339 | 0.322 | 0.342 | 0.371 | 0.953 | 0.88 | 1.07 | 0.863 | 1.06 | 1.14 | 1.03 | 1.17 | 1.31 | 1.08 | 0.307 | 0.343 | 0.308 | 0.298 | 0.36 |
| NCI-H1915 | 0.545 | 0.47 | 0.53 | 0.524 | 0.492 | 0.496 | 0.493 | 0.508 | 0.508 | 0.401 |  | 1.06 | 1.07 | 1.04 | 1.07 |  | 0.239 |  | 0.241 | 0.246 |
| SW 1573 | 0.443 | 0.364 | 0.43 | 0.426 | 0.257 | 0.835 | 0.746 | 0.787 | 0.763 | 0.763 | 0.89 | 0.768 | 0.873 | 0.831 | 0.66 | 0.492 | 0.537 | 0.535 | 0.51 | 0.471 |
| NCI-H1355 | 0.35 | 0.282 | 0.27 | 0.285 | 0.284 | 0.866 | 0.778 | 0.791 | 0.75 | 0.692 | 0.857 | 0.707 | 0.938 | 0.668 | 0.731 | 0.351 | 0.345 | 0.393 | 0.341 | 0.367 |
| NCI-H1651 | 0.492 | 0.486 | 0.507 | 0.523 | 0.543 | 0.55 | 0.604 | 0.648 | 0.498 | 0.598 | 0.841 | 1.01 | 0.99 | 0.947 | 1 | 0.551 | 0.674 | 0.595 | 0.598 | 0.584 |
| NCI-H2023 | 0.408 | 0.428 | 0.424 | 0.355 | 0.112 | 0.211 | 0.18 | 0.274 | 0.195 | 0.187 | 0.581 | 0.62 | 0.6 | 0.518 | 0.548 | 0.205 | 0.271 | 0.327 | 0.195 | 0.187 |
| LOU-NH91 | 0.571 | 0.572 | 0.547 | 0.54 | 0.545 | 0.38 | 0.391 | 0.348 | 0.366 | 0.366 | 0.711 | 0.662 | 0.819 | 0.683 | 0.713 | 0.797 | 0.754 | 0.792 | 0.785 | 0.783 |
| NCI-H3122 | 0.185 | 0.193 | 0.384 | 0.253 | 0.193 | 0.202 | 0.202 | 0.191 | 0.226 | 0.19 | 0.87 | 0.758 | 0.785 | 0.899 | 0.821 | 0.528 | 0.484 | 0.525 | 0.467 | 0.451 |
| LCLC-97TM1 | 0.172 | 0.216 | 0.206 | 0.217 | 0.276 | 0.168 | 0.161 | 0.19 | 0.168 | 0.182 | 0.25 | 0.241 | 0.275 | 0.402 | 0.27 | 0.273 | 0.233 | 0.281 | 0.167 | 0.225 |
| NCI-H647 | 0.379 | 0.262 | 0.369 | 0.442 | 0.365 | 0.181 | 0.154 | 0.147 | 0.167 | 0.151 | 1.08 | 1.26 | 1.19 | 1.28 | 1.1 | 0.369 | 0.318 | 0.487 | 0.408 | 0.364 |
| NCI-H838 | 0.22 | 0.205 | 0.207 | 0.217 | 0.179 | 0.26 | 0.228 | 0.263 | 0.257 | 0.241 | 0.912 | 0.865 | 0.992 | 0.769 | 0.957 | 0.446 | 0.475 | 0.432 | 0.445 | 0.44 |
| H3255 | 0.358 | 0.332 | 0.363 | 0.306 | 0.318 | 0.585 | 0.546 | 0.568 | 0.54 | 0.54 |  | 0.84 | 0.766 | 0.49 | 0.675 | 0.488 | 0.67 | 0.439 | 0.626 | 0.534 |
| NCI-H1793 | 0.269 | 0.305 | 0.297 | 0.261 | 0.336 | 0.603 | 0.779 | 0.808 | 0.604 | 0.957 | 0.846 | 0.683 | 0.878 | 0.82 | 0.636 | 0.486 | 0.509 | 0.502 | 0.53 | 0.591 |
| LXF-289 | 0.57 | 0.642 | 0.57 | 0.645 | 0.553 | 0.851 | 0.924 | 0.708 | 0.871 | 0.792 | 0.886 | 1.01 | 1.03 | 1 | 1.02 | 0.332 | 0.394 | 0.435 | 0.369 | 0.41 |
| HCC-827 | 0.495 | 0.435 | 0.431 | 0.518 | 0.37 | 0.283 | 0.274 | 0.282 | 0.256 | 0.272 | 0.91 | 0.994 | 1.1 | 0.928 | 0.997 | 0.296 | 0.342 | 0.295 | 0.27 | 0.312 |
